# Test system: MDA-MB-231 Axl+ TNBC cells
# Test: MDA-MB-231 Matrigel cell invasion assay
# Type: cell-based
# Details: Homo sapiens
# Procedure: Inhibition of GAS6-induced invasion/migration was evaluated in models for triple-negative breast (MDA-MB-231) and ovarian (OVCAR8) cancers using the Corning® Matrigel® or collagen invasion assays, respectively, and using an AXL decoy receptor which comprises a soluble AXL variant polypeptide comprising amino acid changes relative to wild-type AXL sequence (SEQ ID NO:1) at the following positions: (a) glycine 32; (b) aspartic acid 87; (c) alanine 72; (d) valine 92; and (e) glycine 127, lacking the AXL transmembrane domain, lacking a functional FN domain, and comprising an Fc domain linked to the soluble AXL variant polypeptide by a peptide linker (hereinafter referred to as AVB-S6-500).
# AVB-S6-500 and MDA-MB-231 Axl^+ TNBC cells in serum free media were seeded in the top of a Matrigel-coated Boyden Chamber. Media with serum as a chemo-attractant was added to the chamber bottom. After 24 hours incubation, the number of cells that migrated across the Matrigel were counted and expressed as the fraction of invasive cells relative to a PBS control (FIG. 1A).
# Representative images from the AVB-S6-500 treated MDA-MB-231 cells are depicted in FIG. 2.
structure (smiles),measurement,value
"COc1cc(Nc2c(C#N)cnc3cc(OCCCN4CCN(C)CC4)c(OC)cc23)c(Cl)cc1Cl [Bosutinib, bosutinib]",IC50,24 nM

# Reference: patent US20240009271A1, “METHODS OF TREATING METASTATIC CANCERS USING AXL DECOY RECEPTORS” (Aravive Inc, priority 2017, published 2024)
